Each structure is given as a SMILES string.

For this assay, the target named is α2β1 (Homo sapiens, UniProt P05556+P17301). Nature of the assay: α2β1 cell adhesion. Type of assay: cell-based.
Sequence of α2β1 (P17301 30-1181): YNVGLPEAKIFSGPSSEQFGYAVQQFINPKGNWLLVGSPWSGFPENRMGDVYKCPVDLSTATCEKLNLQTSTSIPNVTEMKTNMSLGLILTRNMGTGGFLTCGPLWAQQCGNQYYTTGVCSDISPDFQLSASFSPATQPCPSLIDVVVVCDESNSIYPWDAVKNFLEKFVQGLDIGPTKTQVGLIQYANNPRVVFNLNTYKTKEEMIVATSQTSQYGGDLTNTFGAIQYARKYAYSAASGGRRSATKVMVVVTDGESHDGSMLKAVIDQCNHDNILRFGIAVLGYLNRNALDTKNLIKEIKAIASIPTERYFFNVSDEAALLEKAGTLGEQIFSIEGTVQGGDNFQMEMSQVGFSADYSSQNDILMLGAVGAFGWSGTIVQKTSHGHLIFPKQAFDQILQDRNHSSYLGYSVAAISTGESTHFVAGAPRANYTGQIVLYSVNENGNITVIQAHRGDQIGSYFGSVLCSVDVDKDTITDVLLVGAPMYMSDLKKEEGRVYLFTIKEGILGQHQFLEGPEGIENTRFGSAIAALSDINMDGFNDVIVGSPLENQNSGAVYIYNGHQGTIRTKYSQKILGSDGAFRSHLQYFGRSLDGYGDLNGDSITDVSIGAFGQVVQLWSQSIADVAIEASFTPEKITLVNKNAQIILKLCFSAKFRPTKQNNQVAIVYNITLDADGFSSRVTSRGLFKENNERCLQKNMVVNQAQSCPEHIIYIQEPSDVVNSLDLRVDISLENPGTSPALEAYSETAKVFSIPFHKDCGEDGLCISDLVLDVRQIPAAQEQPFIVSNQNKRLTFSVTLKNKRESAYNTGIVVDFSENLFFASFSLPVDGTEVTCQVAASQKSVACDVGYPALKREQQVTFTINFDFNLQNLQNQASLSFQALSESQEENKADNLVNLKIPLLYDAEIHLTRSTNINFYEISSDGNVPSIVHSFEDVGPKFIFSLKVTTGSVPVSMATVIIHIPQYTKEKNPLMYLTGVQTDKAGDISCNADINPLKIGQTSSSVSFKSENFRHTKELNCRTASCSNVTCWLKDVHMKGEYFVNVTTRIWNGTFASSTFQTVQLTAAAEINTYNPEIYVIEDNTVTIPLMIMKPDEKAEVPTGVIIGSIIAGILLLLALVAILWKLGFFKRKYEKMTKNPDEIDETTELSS
Sequence of α2β1 (P05556 21-798): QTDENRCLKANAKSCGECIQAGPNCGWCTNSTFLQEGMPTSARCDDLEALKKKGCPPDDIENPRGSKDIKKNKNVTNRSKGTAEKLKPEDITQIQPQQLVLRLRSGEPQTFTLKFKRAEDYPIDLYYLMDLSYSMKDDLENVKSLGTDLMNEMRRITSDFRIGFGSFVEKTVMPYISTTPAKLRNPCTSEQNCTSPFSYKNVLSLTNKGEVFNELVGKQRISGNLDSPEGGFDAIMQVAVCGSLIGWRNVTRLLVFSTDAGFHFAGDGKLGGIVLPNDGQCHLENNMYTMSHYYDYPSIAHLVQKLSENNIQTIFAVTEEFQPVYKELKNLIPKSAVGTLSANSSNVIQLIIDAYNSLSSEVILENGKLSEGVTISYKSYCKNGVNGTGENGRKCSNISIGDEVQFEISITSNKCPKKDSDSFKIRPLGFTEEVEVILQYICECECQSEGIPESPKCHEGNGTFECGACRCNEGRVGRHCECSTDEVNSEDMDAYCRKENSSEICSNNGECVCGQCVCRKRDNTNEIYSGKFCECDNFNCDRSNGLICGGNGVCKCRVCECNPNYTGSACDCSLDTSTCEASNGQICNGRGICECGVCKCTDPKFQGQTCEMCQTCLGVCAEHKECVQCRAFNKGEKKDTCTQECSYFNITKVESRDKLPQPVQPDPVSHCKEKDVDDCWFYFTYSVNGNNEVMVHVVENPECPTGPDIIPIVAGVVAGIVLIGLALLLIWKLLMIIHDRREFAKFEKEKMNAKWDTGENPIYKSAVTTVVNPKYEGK
Turning to `C[C@H](NC(=O)c1cc(Cl)c(C(=O)N[C@@H](CNC(=O)N[C@@H]2CCc3ccccc32)C(=O)O)c(Cl)c1)c1ccccc1` [SU15210-0224-01, (S)-2-(2,6-dichloro-4-((S)-1-phenylethylcarbamoyl)benzamido)-3-(3-((R)-2,3-dihydro-1H-inden-1-yl)ureido)propanoic Acid], the IC50 fell in the range of 1 to 5 µM.

`O=C(NC[C@H](NC(=O)c1c(Cl)cc(COCc2ccccc2)cc1Cl)C(=O)O)N[C@@H]1CCc2ccccc21` [SU15210-0189-01, (S)-2-(4-(benzyloxymethyl)-2,6-dichlorobenzamido)-3-(3-((R)-2,3-dihydro-1H-inden-1-yl)ureido)propanoic Acid] had an IC50 of 0.5 to 1 µM.

`Cc1ccc(CC(=O)Nc2ccc(Cl)c(C(=O)N[C@@H](CNC(=O)N[C@@H]3CCc4ccccc43)C(=O)O)c2Cl)cc1Cl` [SU15210-0154-01, (S)-2-(2,6-dichloro-3-(2-(3-chloro-4-methylphenyl)acetamido)benzamido)-3-(3-((R)-2,3-dihydro-1H-inden-1-yl)ureido)propanoic Acid] had an IC50 of 1 to 5 µM.

On to `O=C(NC[C@H](NC(=O)c1c(Cl)cc2c(c1Cl)CCNC2)C(=O)O)N[C@@H]1CCc2ccccc21` [SU15210-0171-01], for which the IC50 was above 5 µM.

In turn, `CN(Cc1cccc(Cl)c1)C(=O)c1cc(Cl)c(C(=O)N[C@@H](CNC(=O)N[C@@H]2CCc3ccccc32)C(=O)O)c(Cl)c1` [SU15210-0226-01, (S)-2-(2,6-dichloro-4-((3-chlorobenzyl)(methyl)carbamoyl)benzamido)-3-(3-((R)-2,3-dihydro-1H-inden-1-yl)ureido)propanoic Acid] displayed an IC50 of 0.5 to 1 µM.

Consider `O=C(NC[C@H](NC(=O)c1c(Cl)cc2c(c1Cl)CCN(S(=O)(=O)c1ccccc1)C2)C(=O)O)N[C@@H]1CCc2ccccc21` [SU15210-0214-01, (S)-2-(5,7-dichloro-2-(phenylsulfonyl)-1,2,3,4-tetrahydroisoquinoline-6-carboxamido)-3-(3-((R)-2,3-dihydro-1H-inden-1-yl)ureido)propanoic Acid], for which the IC50 is 1 to 5 µM.

`O=C(NC[C@H](NC(=O)c1c(Cl)cc(C(=O)N2Cc3ccccc3C2)cc1Cl)C(=O)O)N[C@@H]1CCc2ccccc21` [SU15210-0228-01, (S)-2-(2,6-dichloro-4-(isoindoline-2-carbonyl)benzamido)-3-(3-((R)-2,3-dihydro-1H-inden-1-yl)ureido)propanoic Acid] returned an IC50 of 1 to 5 µM.

For the compound `CC(=O)N1CCc2c(cc(Cl)c(C(=O)N[C@@H](CNC(=O)N[C@@H]3CCc4ccccc43)C(=O)O)c2Cl)C1` [SU15210-0174-01], the IC50 was 1 to 5 µM.

Compound `O=C(Cc1ccc(F)c(Cl)c1)Nc1ccc(Cl)c(C(=O)N[C@@H](CNC(=O)N[C@@H]2CCc3ccccc32)C(=O)O)c1Cl` [SU15210-0155-01, (S)-2-(2,6-dichloro-3-(2-(3-chloro-4-fluorophenyl)acetamido)benzamido)-3-(3-((R)-2,3-dihydro-1H-inden-1-yl)ureido)propanoic Acid] had an IC50 of 0.5 to 1 µM.

`O=C(NC[C@H](NC(=O)c1c(Cl)cc2c(c1Cl)CCN(C(=O)c1cccc(Cl)c1)C2)C(=O)O)N[C@@H]1CCc2ccccc21` [SU15210-0209-01, (S)-2-(5,7-dichloro-2-(3-chlorobenzoyl)-1,2,3,4-tetrahydroisoquinoline-6-carboxamido)-3-(3-((R)-2,3-dihydro-1H-inden-1-yl)ureido)propanoic Acid] registered an IC50 below 0.5 µM.

With `C[C@@H](NC(=O)c1cc(Cl)c(C(=O)N[C@@H](CNC(=O)N[C@@H]2CCc3ccccc32)C(=O)O)c(Cl)c1)c1ccccc1` [SU15210-0225-01, (S)-2-(2,6-dichloro-4-((R)-1-phenylethylcarbamoyl)benzamido)-3-(3-((R)-2,3-dihydro-1H-inden-1-yl)ureido)propanoic Acid], the IC50 is below 0.5 µM.

On to `O=C(NC[C@H](NC(=O)c1c(Cl)cc(C(=O)N2CC(c3ccccc3)C2)cc1Cl)C(=O)O)N[C@@H]1CCc2ccccc21` [SU15210-0234-01], for which the IC50 was below 0.5 µM.

Regarding `Cc1cccc(CC(=O)Nc2ccc(Cl)c(C(=O)N[C@@H](CNC(=O)N[C@@H]3CCc4ccccc43)C(=O)O)c2Cl)c1` [SU15210-0156-01, (S)-2-(2,6-dichloro-3-(2-m-tolylacetamido)benzamido)-3-(3-((R)-2,3-dihydro-1H-inden-1-yl)ureido)propanoic Acid], the IC50 is 0.5 to 1 µM.

Turning to `O=C(NC[C@H](NC(=O)c1c(Cl)cc(-c2ccccc2)cc1Cl)C(=O)O)N[C@@H]1CCc2ccccc21` [SU15210-0140-01], the IC50 is above 5 µM.

As to `O=C(NC[C@H](NC(=O)c1c(Cl)cc2c(c1Cl)CCN(C(=O)c1ccc(Cl)cc1)C2)C(=O)O)N[C@@H]1CCc2ccccc21` [SU15210-0208-01, (S)-2-(5,7-dichloro-2-(4-chlorobenzoyl)-1,2,3,4-tetrahydroisoquinoline-6-carboxamido)-3-(3-((R)-2,3-dihydro-1H-inden-1-yl)ureido)propanoic Acid], the IC50 was below 0.5 µM.

Compound `O=C(Cc1cccc(Cl)c1)Nc1ccc(Cl)c(C(=O)N[C@@H](CNC(=O)NCc2ccccc2O)C(=O)O)c1Cl` [SU15210-0159-01, (S)-2-(2,6-dichloro-3-(2-(3-chlorophenyl)acetamido)benzamido)-3-(3-(2-hydroxybenzyl)ureido)propanoic Acid] registered an IC50 below 0.5 µM.

In the case of `CN(Cc1ccccc1)C(=O)NC[C@H](NC(=O)c1c(Cl)cc(C(=O)NCc2cccc(Cl)c2)cc1Cl)C(=O)O` [SU15210-0223-01, (S)-3-(3-benzyl-3-methylureido)-2-(2,6-dichloro-4-(3-chlorobenzylcarbamoyl)benzamido)propanoic Acid], the IC50 is below 0.5 µM.

Compound `O=C(Cc1cccc(Cl)c1)Nc1cc(Cl)c(C(=O)N[C@@H](CNC(=O)N[C@@H]2CCc3ccccc32)C(=O)O)c(Cl)c1` [SU15210-0235-01, (S)-2-(2,6-dichloro-4-(2-(3-chlorophenyl)acetamido)benzamido)-3-(3-((R)-2,3-dihydro-1H-inden-1-yl)ureido)propanoic Acid] returned an IC50 below 0.5 µM.

In turn, `CC1(C)CCC(NC(=O)NC[C@H](NC(=O)c2c(Cl)cc(C(=O)NCc3cccc(O)c3)cc2Cl)C(=O)O)c2ccccc21` (stereo partly drawn) [SU15210-0187-01, (2S)-2-(2,6-dichloro-4-(3-hydroxybenzylcarbamoyl)benzamido)-3-(3-(4,4-dimethyl-1,2,3,4-tetrahydronaphthalen-1-yl)ureido)propanoic Acid] had an IC50 below 0.5 µM.

Compound `Nc1ccc(Cl)c(C(=O)N[C@@H](CNC(=O)N[C@@H]2CCc3ccccc32)C(=O)O)c1Cl` [SU15210-0084-01, (S)-2-(3-amino-2,6-dichlorobenzamido)-3-(3-((R)-2,3-dihydro-1H-inden-1-yl)ureido)propanoic Acid] displayed an IC50 of 0.5 to 1 µM.

The compound `CC(C)c1cccc(Nc2ccc(Cl)c(C(=O)N[C@@H](CNC(=O)N[C@@H]3CCc4ccccc43)C(=O)O)c2Cl)c1` [SU15210-0078-01, (S)-2-(2,6-dichloro-3-(3-isopropylphenylamino)benzamido)-3-(3-((R)-2,3-dihydro-1H-inden-1-yl)ureido)propanoic Acid] came in with an IC50 of 0.5 to 1 µM.

In turn, `O=C(NC[C@H](NC(=O)c1c(Cl)cc2c(c1Cl)CCN(Cc1ccccc1)C2=O)C(=O)O)N[C@@H]1CCc2ccccc21` [SU15210-0211-01, (S)-2-(2-benzyl-5,7-dichloro-1-oxo-1,2,3,4-tetrahydroisoquinoline-6-carboxamido)-3-(3-((R)-2,3-dihydro-1H-inden-1-yl)ureido)propanoic Acid] returned a concentration for half-maximal inhibition (IC50) below 0.5 µM.

Usually IC50 stands for the concentration at which inhibition is half-maximal. Low readings indicate higher potency, high ones lower potency.

The values above are taken from patent publication US11643388B2, “Inhibitors of alpha 2 beta 1 integrin and methods of use thereof” (The Regents of the University of California, priority 2020, dated 2023).
